Measurements as given in patent US20230175069A1, “COMPOSITIONS AND METHODS FOR DETECTING GENE FUSIONS OF ESR1 AND CCDC170 FOR DETERMINING INCREASED RESISTANCE TO ENDOCRINE THERAPY AND FOR CANCER TREATMENT” (UNIVERSITY OF PITTSBURGH-OF THE COMMONWEAL TH SYSTEM OF …, priority 2020, published 2023).
pIC50: −log10 of the molar value.

Key:
[1] = system: ZR-75-1 cells; assay: Clonogenic assay in ZR-75-1 cells (E2-E6 ESR1-CCDC170 fusion); assay type: cell-based, human; settings: for cell viability, concomitant inhibitor compared to endocrine treatment alone: lapatinib 2 µM or dasatinib 0.05 µM with tamoxifen or fulvestrant
Experimental: A) Sensitivity of ZR-75-1 cells to tamoxifen in combination with HER2, SRC, or HER2+SRC inhibitors as measured by clonogenic assays. ZR-75-1 cells were treated with different dosages of 4-OH tamoxifen (µM), or 4-OH tamoxifen plus lapatinib (2 µM), dasatinib (0.05 µM), or lapatinib (2 µM) + dasatinib (0.05 µM). Data were normalized against vehicle treatment alone (as 100%). […] Data were normalized against vehicle treatment alone (as 100%).
Left panel, the representative plate images of clonogenic assays. Right panel, the relative clonogenic viabilities normalized to tamoxifen monotreatment (Means ± SD. of triplicates).
The clonogenic viabilities following the respective treatments were assessed by clonogenic assays.

[2] = system: HCC1428 cells; assay: Clonogenic assay in HCC1428 cells (endogenous E2-E10 ESR1-CCDC170 fusion); assay type: cell-based, human; settings: for therapeutic effect when combined with fulvestrant, comparison / therapeutic activity in combination with tamoxifen or fulvestrant, comparison between inhibitors / cell viability, inhibitor in combination with tamoxifen or fulvestrant compared to tamoxifen or fulvestrant alone: lapatinib 2 µM; for therapeutic effect when combined with fulvestrant, comparison: dasatinib 0.05 µM plus fulvestrant; for therapeutic activity in combination with tamoxifen or fulvestrant, comparison between inhibitors: dasatinib 0.05 µM vs BEZ235 8 nM; for therapeutic activity in combination with tamoxifen or fulvestrant, comparison between inhibitors / cell viability, inhibitor in combination with tamoxifen or fulvestrant compared to tamoxifen or fulvestrant alone: AZD8931 1 µM; for cell viability, inhibitor in combination with tamoxifen or fulvestrant compared to tamoxifen or fulvestrant alone: dasatinib 0.05 µM, BEZ235 8 nM
[3] = system: MDA-MB-415; assay: Clonogenic assay in fusion-negative MDA-MB-415 cells; assay type: cell-based; settings: Homo sapiens; MDA-MB-415 (fusion-negative); titrated lapatinib in combination with 0.5 µM tamoxifen, 10 to 13 days; read-out: IC50 (clonogenic viability)
[4] = system: CAMA-1; assay: Clonogenic assay in fusion-negative CAMA-1 cells; assay type: cell-based; settings: Homo sapiens; CAMA-1 (fusion-negative); titrated lapatinib in combination with 0.5 µM tamoxifen, 10 to 13 days; read-out: IC50 (clonogenic viability)
[5] = system: HER2; settings: HCC1428 cells

SMILES | cell viability, concomitant inhibitor compared to endocrine treatment alone [1] | therapeutic effect when combined with fulvestrant, comparison [2] | therapeutic activity in combination with tamoxifen or fulvestrant, comparison between inhibitors [2] | cell viability, inhibitor in combination with tamoxifen or fulvestrant compared to tamoxifen or fulvestrant alone [2] | further results
Cc1nc(Nc2ncc(C(=O)Nc3c(C)cccc3Cl)s2)cc(N2CCN(CCO)CC2)n1 [dasatinib] | did not show any significant therapeutic benefit | comparable therapeutic effects | better therapeutic activities than BEZ235 or AZD8931 | significantly inhibited cell viability | activity in the presence of tamoxifen, comparison ([2]; dasatinib 0.05 µM vs lapatinib 2 µM plus 4-OH tamoxifen): better activity than lapatinib
Cn1c(=O)n(-c2ccc(C(C)(C)C#N)cc2)c2c3cc(-c4cnc5ccccc5c4)ccc3ncc21 [BEZ235] |  |  |  | significantly inhibited cell viability | 
CNC(=O)CN1CCC(Oc2cc3c(Nc4cccc(Cl)c4F)ncnc3cc2OC)CC1 [AZD8931] |  |  |  | significantly inhibited cell viability | 
CS(=O)(=O)CCNCc1ccc(-c2ccc3ncnc(Nc4ccc(OCc5cccc(F)c5)c(Cl)c4)c3c2)o1 [lapatinib] | further decreased cell viability | comparable therapeutic effects | better therapeutic activities than BEZ235 or AZD8931 | significantly inhibited cell viability | pIC50 ([1]; Homo sapiens, ZR-75-1 (E2-E6 variant), titrated lapatinib in combination with 0.5 µM tamoxifen, 10 to 13 days, normalized to tamoxifen monotreatment, read-out: IC50 (clonogenic viability)): 6.22; pIC50 [3]: 5.40; pIC50 ([2]; Homo sapiens, HCC1428 (E2-E10 variant), titrated lapatinib in combination with 0.5 µM tamoxifen, 10 to 13 days, normalized to tamoxifen monotreatment, read-out: IC50 (clonogenic viability)): 6.82; pIC50 [4]: 5.19
CC/C(=C(\c1ccccc1)c1ccc(OCCN(C)C)cc1)c1ccccc1 [tamoxifen] |  |  |  |  | response of cells to endocrine treatment (clonogenic assay) ([1]; increasing doses of tamoxifen or fulvestrant): responded; HER2 protein level (Western blot) [5]: upregulated; cell growth (clonogenic assay), endocrine agent alone ([2]; Tam 0.5 µM or Ful 0.1 µM, 72 hours): reduced cell growth efficiently
